Experimental data taken from ChEMBL document CHEMBL1201862, “PubChem BioAssay data set” (2004).
Activity calls are given as the source filed them.

What was measured:
[1] = system: Vero; experiment: cells; assay type: functional; conditions: Chlorocebus sabaeus
[2] = viability loss in HeLa cells – cytotoxicity control for MgcRacGAP inhibitor project, dose response (AID 624300); assay type: functional
[3] = biological target: Perilipin-1/ABHD5 (Homo sapiens, UniProt O60240+Q8WTS1); experiment: Luminescence-based biochemical high throughput dose response assay for inhibitors of the interaction of the lipase co-activator protein, abhydrolase domain containing 5 (ABHD5) with perilipin-1 (PLIN1) (2K validation set). [Related pubchem assays (depositor defined):AID493027, AID493057]
[4] = system: Vero; experiment: cells; assay type: functional, cell-based; conditions: Chlorocebus sabaeus
[5] = biological target: 1-acylglycerol-3-phosphate O-acyltransferase ABHD5/Perilipin-5 (Homo sapiens, UniProt Q00G26+Q8WTS1); experiment: Luminescence-based biochemical high throughput dose response assay for inhibitors of the interaction of the lipase co-activator protein, abhydrolase domain containing 5 (ABHD5) with perilipin-5 (MLDP; PLIN5) (2K validation set). [Related pubchem assays (depositor defined):AID493035, AID493241]
Chain of 1-acylglycerol-3-phosphate O-acyltransferase ABHD5/Perilipin-5 (Q00G26 whole entry, the tested form may be a part): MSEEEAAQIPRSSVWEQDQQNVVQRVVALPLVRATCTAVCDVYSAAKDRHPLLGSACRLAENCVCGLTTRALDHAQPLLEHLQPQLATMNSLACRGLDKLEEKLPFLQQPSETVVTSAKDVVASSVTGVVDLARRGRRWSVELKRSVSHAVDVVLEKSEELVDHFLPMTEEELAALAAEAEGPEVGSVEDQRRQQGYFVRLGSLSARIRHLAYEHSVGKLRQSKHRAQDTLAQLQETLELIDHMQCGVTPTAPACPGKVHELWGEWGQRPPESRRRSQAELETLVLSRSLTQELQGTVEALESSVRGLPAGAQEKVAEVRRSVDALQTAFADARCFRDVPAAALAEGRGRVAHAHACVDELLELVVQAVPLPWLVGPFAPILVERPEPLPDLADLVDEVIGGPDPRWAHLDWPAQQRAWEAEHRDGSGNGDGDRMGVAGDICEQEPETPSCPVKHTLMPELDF
Chain of 1-acylglycerol-3-phosphate O-acyltransferase ABHD5/Perilipin-5 (Q8WTS1 whole entry, the tested form may be a part): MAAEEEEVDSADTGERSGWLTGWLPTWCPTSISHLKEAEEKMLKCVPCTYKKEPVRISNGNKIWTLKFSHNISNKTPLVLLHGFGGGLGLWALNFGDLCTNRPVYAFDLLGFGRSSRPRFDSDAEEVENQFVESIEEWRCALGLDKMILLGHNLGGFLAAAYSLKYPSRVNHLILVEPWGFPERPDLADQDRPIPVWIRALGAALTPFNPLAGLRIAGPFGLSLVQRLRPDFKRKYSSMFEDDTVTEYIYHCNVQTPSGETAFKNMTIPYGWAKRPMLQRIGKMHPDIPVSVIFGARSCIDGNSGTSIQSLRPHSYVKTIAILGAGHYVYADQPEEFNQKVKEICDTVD

[6] = biological target: Beta-galactosidase (Escherichia coli, UniProt Q8VNN2); experiment: detection-enzyme interference by beta-gal modulators – biochemical, E. coli enzyme, set 3, artefact control for CCR6 antagonist project, dose response (AID 504712); assay type: functional
[7] = biological target: NS3 (Hepatitis C virus, UniProt A3EZJ3); experiment: PubChem AID 2173; design: species or system Hepacivirus hominis
Chain of NS3 (A3EZJ3 whole entry): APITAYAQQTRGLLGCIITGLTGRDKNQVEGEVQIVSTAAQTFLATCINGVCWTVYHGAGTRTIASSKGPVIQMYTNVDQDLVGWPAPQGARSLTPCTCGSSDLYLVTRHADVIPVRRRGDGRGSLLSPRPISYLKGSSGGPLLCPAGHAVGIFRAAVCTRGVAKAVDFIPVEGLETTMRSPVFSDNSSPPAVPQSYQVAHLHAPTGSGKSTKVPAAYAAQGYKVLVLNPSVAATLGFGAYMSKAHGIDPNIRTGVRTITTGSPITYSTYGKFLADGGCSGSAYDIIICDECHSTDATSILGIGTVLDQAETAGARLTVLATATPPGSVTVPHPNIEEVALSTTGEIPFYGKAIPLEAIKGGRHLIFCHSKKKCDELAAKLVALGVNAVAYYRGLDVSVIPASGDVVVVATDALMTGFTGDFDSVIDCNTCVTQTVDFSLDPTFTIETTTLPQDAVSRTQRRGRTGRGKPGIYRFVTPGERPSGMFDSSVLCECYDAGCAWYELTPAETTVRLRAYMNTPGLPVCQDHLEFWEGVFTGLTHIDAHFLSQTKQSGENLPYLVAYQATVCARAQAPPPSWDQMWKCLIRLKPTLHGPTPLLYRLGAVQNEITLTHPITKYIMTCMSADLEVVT

[8] = biological target: C-C chemokine receptor type 6 (Homo sapiens, UniProt P51684); experiment: antagonism of CCR6 beta-arrestin recruitment – cell-based, luminescent beta-arrestin readout, dose response (AID 504728); assay type: functional
Chain of C-C chemokine receptor type 6 (P51684 whole entry): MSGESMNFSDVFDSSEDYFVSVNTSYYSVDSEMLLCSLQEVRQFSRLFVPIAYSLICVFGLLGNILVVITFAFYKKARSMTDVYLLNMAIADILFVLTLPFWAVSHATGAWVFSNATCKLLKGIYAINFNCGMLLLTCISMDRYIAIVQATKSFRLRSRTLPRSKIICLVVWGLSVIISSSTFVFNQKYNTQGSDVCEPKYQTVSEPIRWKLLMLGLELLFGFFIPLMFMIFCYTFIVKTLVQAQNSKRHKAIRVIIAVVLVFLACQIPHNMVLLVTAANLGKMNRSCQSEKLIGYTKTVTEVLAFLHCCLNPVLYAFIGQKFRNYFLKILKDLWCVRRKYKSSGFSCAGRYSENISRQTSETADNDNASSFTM

[9] = biological target: Neutrophil collagenase (Homo sapiens, UniProt P22894); experiment: potency against MMP13, MMP2, MMP3, MMP14 – biochemical, probe development, late stage results, selectivity assay for MMP13 inhibitor project, late-stage follow-up, panel member MMP-8 [IC50 Assay] (AID 2067)
Chain of Neutrophil collagenase (P22894 whole entry): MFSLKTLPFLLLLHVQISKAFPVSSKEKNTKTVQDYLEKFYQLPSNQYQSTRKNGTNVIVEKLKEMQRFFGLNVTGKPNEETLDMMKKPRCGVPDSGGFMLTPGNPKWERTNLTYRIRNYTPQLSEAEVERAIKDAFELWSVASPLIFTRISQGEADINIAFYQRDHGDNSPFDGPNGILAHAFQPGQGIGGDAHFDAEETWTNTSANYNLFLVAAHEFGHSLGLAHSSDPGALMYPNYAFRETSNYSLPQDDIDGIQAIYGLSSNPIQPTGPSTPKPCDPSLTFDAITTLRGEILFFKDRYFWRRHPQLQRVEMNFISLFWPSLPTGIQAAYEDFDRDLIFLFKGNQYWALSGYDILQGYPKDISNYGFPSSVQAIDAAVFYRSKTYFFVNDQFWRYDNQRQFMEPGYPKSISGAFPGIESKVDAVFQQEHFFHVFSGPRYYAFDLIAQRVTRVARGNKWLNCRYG

[10] = biological target: Protein Rev (Human immunodeficiency virus type 1 group M subtype B (isolate WMJ22)(HIV-1), UniProt P05866); experiment: inhibitors of Rev protein–RRE RNA complex – biochemical, protein-RNA interaction, dose response (AID 842); design: species or system Human immunodeficiency virus 1
Chain of Protein Rev (P05866 whole entry): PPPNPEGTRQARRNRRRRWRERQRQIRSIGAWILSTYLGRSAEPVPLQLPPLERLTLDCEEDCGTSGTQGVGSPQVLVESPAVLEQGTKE

[11] = biological target: T1, Neuropeptide Y receptor type 2 (Homo sapiens, UniProt P49146); experiment: Fluorescence-based cell-based high-throughput dose response assay for agonists of NPY-Y2. [Related pubchem assays: 1703 (Screening assay (CNGC inhibitors).), 1359 (Screening assay (NPY-Y2 potentiators or agonists).), 1304 (Screening assay (NPY-Y1 potentiators or agonists).), 1710 (Screening assay (NPY-Y2 agonists).), 1791 (Summary AID.)]; assay type: functional
T1 sequence (P49146 whole entry): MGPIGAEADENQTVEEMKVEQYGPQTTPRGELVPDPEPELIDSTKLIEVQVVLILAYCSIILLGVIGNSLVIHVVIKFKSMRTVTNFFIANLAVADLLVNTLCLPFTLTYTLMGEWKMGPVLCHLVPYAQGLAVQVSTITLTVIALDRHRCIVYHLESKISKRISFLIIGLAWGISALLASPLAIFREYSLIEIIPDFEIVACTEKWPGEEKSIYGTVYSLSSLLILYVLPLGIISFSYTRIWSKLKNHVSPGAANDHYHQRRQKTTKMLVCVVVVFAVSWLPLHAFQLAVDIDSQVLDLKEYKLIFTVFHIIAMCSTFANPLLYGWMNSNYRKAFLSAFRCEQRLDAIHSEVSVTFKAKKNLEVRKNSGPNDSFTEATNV

[12] = system: HEK293; experiment: Fluorescence-based counterscreen for potentiators or agonists of NPY-Y2: cell-based high-throughput dose response assay to identify inhibitors of cyclic nucleotide gated ion channel (CNGC) activity. In this assay, the parental HEK293 cell line transfected with a cyclic-nucleotide gated ion channel (CNGC)-based cAMP sensor is used to measure inhibition of isoproterenol-induced CNGC activity by test compound.; assay type: functional; conditions: Homo sapiens;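 also: stimulus is 1 µM isoproterenol at EC100 plus PDE inhibitor Ro 20-1724 at 25 µM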
[13] = biological target: T2, Neuropeptide Y receptor type 1 (Homo sapiens, UniProt P25929); experiment: Fluorescence-based counterscreen for agonists of NPY-Y2: cell-based high-throughput dose response assay for agonists of NPY-Y1.; assay type: functional
T2 sequence (P25929 whole entry): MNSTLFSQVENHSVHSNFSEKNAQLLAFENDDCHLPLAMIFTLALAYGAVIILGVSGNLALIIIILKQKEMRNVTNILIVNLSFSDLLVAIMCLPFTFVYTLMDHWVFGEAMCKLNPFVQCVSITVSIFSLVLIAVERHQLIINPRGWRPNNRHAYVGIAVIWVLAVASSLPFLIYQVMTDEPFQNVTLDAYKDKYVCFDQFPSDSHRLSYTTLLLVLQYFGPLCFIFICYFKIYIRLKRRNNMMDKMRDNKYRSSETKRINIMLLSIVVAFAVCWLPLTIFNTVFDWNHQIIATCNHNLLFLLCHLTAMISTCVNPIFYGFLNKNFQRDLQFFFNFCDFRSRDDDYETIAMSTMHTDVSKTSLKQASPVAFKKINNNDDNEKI

[14] = biological target: Lysosomal acid glucosylceramidase (Homo sapiens, UniProt P04062); experiment: Dose response cell-based high throughput screening assay to identify enhancers of beta-glucosidase activity. [Related pubchem assays: 784 ]; assay type: functional
Chain of Lysosomal acid glucosylceramidase (P04062 whole entry): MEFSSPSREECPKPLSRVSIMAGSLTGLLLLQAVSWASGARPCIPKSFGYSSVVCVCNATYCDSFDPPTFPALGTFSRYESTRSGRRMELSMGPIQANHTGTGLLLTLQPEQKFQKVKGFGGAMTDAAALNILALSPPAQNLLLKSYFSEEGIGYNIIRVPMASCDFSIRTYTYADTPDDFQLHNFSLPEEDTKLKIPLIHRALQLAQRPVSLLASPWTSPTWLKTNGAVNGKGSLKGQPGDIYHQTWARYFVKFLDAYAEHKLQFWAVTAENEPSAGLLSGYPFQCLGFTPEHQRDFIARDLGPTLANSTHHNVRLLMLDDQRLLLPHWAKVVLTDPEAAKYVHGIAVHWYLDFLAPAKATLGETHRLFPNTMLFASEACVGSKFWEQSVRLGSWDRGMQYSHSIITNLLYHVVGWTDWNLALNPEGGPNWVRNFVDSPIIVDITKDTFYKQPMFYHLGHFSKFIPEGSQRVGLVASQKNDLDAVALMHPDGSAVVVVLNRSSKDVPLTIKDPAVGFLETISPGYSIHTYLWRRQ

[15] = alpha-synuclein stem-loop luciferase translation blockers – H4 neuroglioma cells, luminescence, confirmation (AID 1988); assay type: functional, cell-based
[16] = Luminescence Cell-Based Dose Response HTS to Identify Inhibitors of 5'UTR Stem-Loop Driven Prion Protein mRNA Translation in H4 Neuroglioblastoma Cells. [Related pubchem assays: 1827 (Project Summary), 1813 (Primary HTS)]; assay type: functional
[17] = Trypanosoma cruzi growth suppression in host cells – NIH3T3 host cells, beta-gal luminescence, confirmation (AID 2044); assay type: functional, cell-based;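 also: intracellular parasites grown in NIH/3T3 mouse fibroblasts as host cells; luminescent beta-galactosidase reporter signal from transgenic T. cruzi replicating inside host cells; inhibitors lower the luminescence signal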
[18] = NIH3T3 cell viability loss – ATP luminescence, mouse fibroblasts, counter-screen, dose response (AID 2010); assay type: functional, cell-based;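 also: cells exposed to compound for about 90 hours before reading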
[19] = biological target: G-protein coupled receptor 35 (Homo sapiens, UniProt Q9HC97); experiment: inhibition of zaprinast-stimulated GPR35 beta-arrestin translocation – imaging, U2OS, beta-arrestin-GFP, zaprinast agonist, primary screen (AID 2058); assay type: functional;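 also: antagonist potency meaning inhibition of agonist-induced arrestin redistribution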
Chain of G-protein coupled receptor 35 (Q9HC97 whole entry): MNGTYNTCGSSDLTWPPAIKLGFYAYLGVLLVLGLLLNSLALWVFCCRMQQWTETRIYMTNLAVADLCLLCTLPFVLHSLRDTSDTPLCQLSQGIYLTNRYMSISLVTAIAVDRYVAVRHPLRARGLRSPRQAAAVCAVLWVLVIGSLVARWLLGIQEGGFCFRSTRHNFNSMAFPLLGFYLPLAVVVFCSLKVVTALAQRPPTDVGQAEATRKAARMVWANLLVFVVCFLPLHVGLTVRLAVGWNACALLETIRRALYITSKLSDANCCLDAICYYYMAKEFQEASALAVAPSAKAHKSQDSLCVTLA

[20] = luciferase reporter signal suppression in cells – H4 neuroglioma cells, luminescence, dose response (AID 1990); assay type: functional, cell-based
[21] = biological target: T3, Ubiquitin-conjugating enzyme E2 N (Homo sapiens, UniProt P61088); assay type: functional;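 also: Dose-response confirmation in a TR-FRET assay detecting UBC13-driven polyubiquitin chain formation, inhibition measured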
T3 sequence (P61088 whole entry): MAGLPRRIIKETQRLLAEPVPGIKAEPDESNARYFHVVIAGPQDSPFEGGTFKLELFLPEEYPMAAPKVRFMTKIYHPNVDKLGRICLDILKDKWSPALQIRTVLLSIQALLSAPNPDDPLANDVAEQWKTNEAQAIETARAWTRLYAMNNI

[22] = cells
[23] = biological target: Acyl-homoserine lactone acylase PvdQ (Pseudomonas aeruginosa (strain LESB58), UniProt Q9I194); experiment: PvdQ acylase enzyme activity blockers – biochemical, fluorescence, plate reader and imaging, cherry-picks, dose response (AID 493231)
Chain of Acyl-homoserine lactone acylase PvdQ (Q9I194 24-193 limits assumed): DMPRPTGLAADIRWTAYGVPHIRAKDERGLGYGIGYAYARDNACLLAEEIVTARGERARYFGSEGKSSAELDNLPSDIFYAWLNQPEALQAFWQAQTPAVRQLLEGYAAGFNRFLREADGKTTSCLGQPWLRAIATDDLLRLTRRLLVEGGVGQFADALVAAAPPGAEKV
Chain of Acyl-homoserine lactone acylase PvdQ (Q9I194 217-762 limits assumed): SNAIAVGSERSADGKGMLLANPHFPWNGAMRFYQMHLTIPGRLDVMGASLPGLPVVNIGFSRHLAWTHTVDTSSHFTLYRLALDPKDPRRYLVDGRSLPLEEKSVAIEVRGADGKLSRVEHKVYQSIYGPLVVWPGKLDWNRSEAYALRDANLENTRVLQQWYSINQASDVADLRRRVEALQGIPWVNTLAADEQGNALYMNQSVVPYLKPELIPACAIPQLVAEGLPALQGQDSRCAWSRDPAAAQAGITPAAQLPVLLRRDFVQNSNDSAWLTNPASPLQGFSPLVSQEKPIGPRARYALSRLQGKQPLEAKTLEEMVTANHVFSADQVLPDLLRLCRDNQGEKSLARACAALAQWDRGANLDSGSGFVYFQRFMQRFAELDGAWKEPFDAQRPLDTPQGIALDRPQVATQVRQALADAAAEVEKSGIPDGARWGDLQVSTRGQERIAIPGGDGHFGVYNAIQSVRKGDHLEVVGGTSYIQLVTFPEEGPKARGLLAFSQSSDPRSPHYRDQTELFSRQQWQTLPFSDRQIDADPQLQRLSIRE

[24] = biological target: Scavenger receptor class B member 1 (Mus musculus, UniProt Q61009); experiment: mouse SR-BI DiI-HDL uptake blockers – ldlA[mSR-BI] cells, fluorescence, cherry pick, dose response (AID 493194); assay type: functional, cell-based;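 also: cellular uptake of fluorescent DiI-labeled HDL measured as cell fluorescence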
Chain of Scavenger receptor class B member 1 (Q61009 whole entry): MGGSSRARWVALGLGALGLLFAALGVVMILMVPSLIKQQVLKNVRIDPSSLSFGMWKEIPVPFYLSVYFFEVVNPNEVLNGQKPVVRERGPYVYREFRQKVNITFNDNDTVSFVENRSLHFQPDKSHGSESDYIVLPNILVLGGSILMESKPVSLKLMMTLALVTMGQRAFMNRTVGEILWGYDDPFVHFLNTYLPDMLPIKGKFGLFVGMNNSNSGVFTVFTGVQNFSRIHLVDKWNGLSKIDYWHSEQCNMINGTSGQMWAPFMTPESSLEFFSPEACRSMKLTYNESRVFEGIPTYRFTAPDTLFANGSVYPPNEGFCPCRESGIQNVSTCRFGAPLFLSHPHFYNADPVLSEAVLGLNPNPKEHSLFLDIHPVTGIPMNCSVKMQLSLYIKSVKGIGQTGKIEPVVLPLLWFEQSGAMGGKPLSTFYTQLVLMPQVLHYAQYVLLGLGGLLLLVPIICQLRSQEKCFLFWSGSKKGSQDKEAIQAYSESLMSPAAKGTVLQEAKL

## COC(=O)C1=C(C)N(Cc2ccco2)C(=O)/C1=C\c1ccc([N+](=O)[O-])cc1
[1]
  CC50: 17.6 µM (active)
[2]
  CC50: 62.9 µM (active)
[3]
  IC50: 2.07 µM (active)
[4]
  IC50: > 25 µM (active)
[5]
  IC50: 2.27 µM (active)

## Cc1ccc(C(CCN(Cc2ccccc2)C(=O)c2ccco2)c2ccco2)cc1 (centres undefined)
[6]
  IC50: > 66.6 µM (inactive)
[7]
  IC50: 8.82 µM (active)
[8]
  IC50: > 66.6 µM (inactive)

## COC(=O)c1ccc(CSc2nc3c(c(=O)[nH]2)CCC3)cc1
[9]
  IC50: > 39.8 µM (inactive)

## O=C(CN1C2=NCCN2c2ccccc21)c1ccc(Br)cc1
[10]
  IC50: > 79.4 µM (not active)

## C=CCc1ccccc1OCC(O)CN1CCN(c2ccc(C)cc2)CC1 (centres undefined)
[11]
  EC50: 14.8 µM (not active)
[12]
  EC50: 1.78 µM (active)
[13]
  EC50: 8.5 µM (active)

## Cc1ccc(-n2c(=O)c(C#N)cc3c(=O)n4ccccc4nc32)cc1
[14]
  EC50: > 50 µM (not active)

## CCN(CC)CCCNc1ccc(-c2nnc(-c3ccc(OCC(C)C)cc3)o2)cn1
[15]
  EC50: > 30 µM (not active)
[16]
  EC50: 13.5 µM (active)
[17]
  EC50: < 0.1 µM (active)
[18]
  EC50: 4.75 µM (active)
[19]
  IC50: 1.96 µM (active)
[20]
  EC50: > 120 µM (not active)
[21]
  IC50: > 20 µM (inactive)
[22]
  EC50: 0.394 µM (active)

## Clc1ccc2scc(CN3CCCC3)c2c1
[23]
  AC50: 2.66 µM (active)

## Cc1cccc(N2CCN(C(=O)CN3C(=O)NC4(CCCCCC4)C3=O)CC2)c1C
[24]
  AC50: 47.4 µM (active)
